Measurements from the METLIN SMRT retention time set (Domingo-Almenara et al. 2019).

assay: gradient 5% acetonitrile 3 min, to 50% in 2 min, to 85% in 15 min, held 3 min, 100 µL/min; settings: column: Zorbax Extend-C18 2.1 x 50 mm; eluents: water / acetonitrile, 0.1% formic acid
Summary of the method: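 Retention times of pure standards were taken from adduct peaks that were selected by computer and manually inspected. Over 3 months, mixtures of ~100 molecules were run by HPLC–quadrupole time-of-flight mass spectrometry in positive and negative ionization mode. The Zorbax Extend-C18 column (2.1 × 50 mm, 1.8 μm) ran at 100 μL/min in water and acetonitrile, each containing 0.1% formic acid, with 40 μL dead volume and 900 μL dwell volume.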

RP-LC retention time [s]	SMILES
748	COC[C@@H]1CN(C(=O)c2cc(C)oc2C)C[C@H]1c1nc(C)no1
662	Cc1noc(C)c1CCC(=O)N1CCCC1CCc1ncc(C)n1CC1CC1 (stereo unspecified)
921	CC(C(=O)NCCc1c[nH]c2ccc(Cl)cc12)C1CCN(S(=O)(=O)c2cccs2)CC1 (stereo unspecified)
661	Cc1cc(=O)n(CC(=O)Nc2ccccc2Cl)c(N2CCCC2)n1
1450	CC(C)(C)c1cc(C(=O)Nc2cc(F)ccc2F)nc2ccnn12
908	O=C(CSc1nnc2c3cc(-c4ccccc4)nn3ccn12)Nc1ccccc1Br
1020	Cc1nn(Cc2nc(-c3ccc(NC(=O)C4CCCCC4)cc3)oc2C)c(C)c1C
646	O=C(O)/C=C\C(=O)Nc1nccs1
636	O=C(Nc1ccc(Nc2ccncc2)cc1)c1ccc(Nc2ccnc3ccc([N+](=O)[O-])cc23)cc1
805	Cc1c(Cl)cccc1NC(=O)C(C)n1cnc2nc3c(cc2c1=O)CCCC3 (stereo unspecified)
1150	Cc1sc(-c2nc(C(C)C)cs2)cc1S(=O)(=O)NCc1cccs1
672	O=C(Cn1cnc2ccccc2c1=O)NC1CCCC1
816	COCCN1C(=O)CCc2cc(NS(=O)(=O)c3ccc(C)c(C)c3)ccc21
807	COc1cccc(OCC2c3ccsc3CCN2C(=O)CN(C(C)=O)C2CC2)c1 (stereo unspecified)
1100	CCCN1C(=O)COc2ccc(-c3noc(COc4ccc(OC)cc4)n3)cc21
1250	CC1CCN(S(=O)(=O)c2cccc(-c3nnc(-c4ccc(Cl)cc4)o3)c2)CC1
682	Cc1cc(NC(=O)N2CCC(CN3CCCC(C)C3)CC2)ccc1Br (stereo unspecified)
590	CC1(C)CC(O)CC(C)(C)N1CC(O)COc1ccc(Cl)cc1Cl (stereo unspecified)
670	Cc1ccc(-n2nnc(C(=O)O)c2-c2ccccn2)cc1
851	Cc1cc(C)cc(N2CCC(NC(=O)NCc3cccc(F)c3)C2=O)c1 (stereo unspecified)
883	Cc1cc(Cl)ccc1NC(=O)N1C[C@@H]2C[C@H]1C[C@@H]2NS(=O)(=O)c1ccccc1
1050	CC(C)c1ccc(OCC(=O)N(Cc2ccc(Br)o2)C2CCS(=O)(=O)C2)cc1 (stereo unspecified)

RP-LC retention time [s]	SMILES
954	O=C(Nc1c(F)cccc1F)N1CCc2nc(-c3ccc(Cl)cc3)ncc2C1
691	CCOc1cc(C(=O)Nc2cc(=O)n(C)c(=O)n2C)cc(OCC)c1OCC
788	Cn1ccc(CN2CCc3ccccc32)cc1=O
1060	COc1ccc(NC(=O)C2CCCN(c3nc4ccccc4nc3C(F)(F)F)C2)cc1OC (stereo unspecified)
546	O=C(Cn1ccc2ccccc21)NCCn1nc(-n2ccnc2)ccc1=O
899	O=C(Nc1ccc(F)c(F)c1)C(=O)c1ccc[nH]1
747	O=c1c(NCc2ccccc2Cl)nc2ccncc2n1Cc1ccccc1
1020	CCCOC(=O)C1=CN(Cc2ccccc2)S(=O)(=O)N=C1C
679	COc1ccc(CNC(=O)c2[nH]c3cc(C)sc3c2CN2CCCC2)cc1
760	Cc1nc(-c2ccc3c(c2)CCN3C(=O)C2CCOC2)cs1 (stereo unspecified)
985	CCOC(=O)c1c(C)c(CCC(=O)N2CCCCCC2)n(CC)c1C
706	CCOC(=O)c1c(S(=O)(=O)N2CCC(C(=O)N3CCCC3)CC2)c(C)n(C)c1C
586	O=C1CCN(Cc2ccc3c(c2)CCO3)CCCCCCN1
623	CCn1c(N2CCN(C(=O)Nc3cc(OC)c(OC)c(OC)c3)CC2)nc2ccccc21
955	CCOC(=O)c1ccc(-c2c(C(=O)OCC)oc3cc(O)c(CC)cc3c2=O)o1
689	N#CC[C@@H](C1CCCC1)n1cc(-c2ncnc3[nH]ccc23)cn1
653	Cc1nc(C)c(-c2nnc(NC(=O)c3cc(=O)c4ccccc4o3)o2)s1
779	COc1cc(NC(=O)c2c(OC)cc(=O)n3c2CCCC3)cc(OC)c1OC
572	O=C(C1CCN(c2cnc3nccnc3c2)CC1)N1CCN(C2CCCCC2)CC1
694	CC(=O)c1cccc(Nc2c(C(=O)OC(C)C)cnc3nc(C)ccc23)c1
580	Cc1ccnc(Nc2nc(C)c3ccccc3n2)n1
747	CCc1ccc(NC(=O)Cn2c(N3CCOCC3)nc(CC)cc2=O)cc1

RP-LC retention time [s]	SMILES
671	CCOC(=O)c1c(C)oc2ncnc(NCc3ccccn3)c12
550	COc1ccc(CNc2nc3ccncc3n(C(C)C)c2=O)cc1OC
656	COc1cccc(NC(=O)C2CCN(S(=O)(=O)c3cn(C)cn3)CC2)c1
1430	Cc1cccc(OCc2nc(-c3cccc(-c4csc(C5CC5)n4)c3)no2)c1
661	Cc1nnc(NC(=O)C2CCN(C(=O)c3cccc(F)c3)CC2)s1
687	O=C(CN1CCC2(CC1)N=C(c1ccccc1)C(=O)N2)Nc1cccc(Br)c1
686	CCCOc1ccc(NC(=O)c2cc(=O)c3ccc(C)cc3o2)c2cccnc12
587	Nc1nnc(-c2cccnc2)s1
550	CCN1CCN(c2ncc3c(n2)CCN(Cc2cccc(Br)c2)C3)CC1
758	Cc1cccc(S(=O)(=O)Nc2ccc3c(c2)CCC(=O)N3C)c1
969	COc1cccc(-n2c(=O)c3sccc3n(Cc3nc(-c4ccccc4Cl)no3)c2=O)c1
632	CCCN(Cc1ccc(OC)c(OC)c1)Cc1cc(=O)n2cc(Cl)ccc2n1
585	CCN1CCN(C(=O)c2cnn(-c3cc(-c4nc(C)no4)ccn3)c2C)CC1
944	COc1ccccc1-c1noc(CN2C(=O)C(C)Oc3ccccc32)n1 (stereo unspecified)
564	CSCC(CO)NC(=O)/C=C/c1c(C)[nH]c(=O)[nH]c1=O (stereo unspecified)
1120	CC(CCc1ccccc1)NC(=O)CN1CCCN(Cc2cccc(Cl)c2)S1(=O)=O (stereo unspecified)
832	O=C(Cc1csc2nc(-c3ccccc3)cn12)NCc1ccccc1Cl
890	COC(=O)c1ccc(NC(=O)N2CCCC2c2cc(C(C)C)on2)cc1 (stereo unspecified)
640	COc1cccc(N2CCN(CC(O)c3ccc4c(c3)OCO4)CC2)c1 (stereo unspecified)
638	COC(=O)c1ccc(C(=O)OC)c(=O)[nH]1
826	CCNC(=O)c1cnn(-c2cc(-c3nc(C4CC4)no3)ccn2)c1C
831	Cc1noc(-c2cc(=O)n(CC(=O)Nc3cccc(C#N)c3)c3ccccc23)n1

RP-LC retention time [s]	SMILES
551	O=C(C1CC(=O)N(c2n[nH]c3ccccc23)C1)N1CCN(CCc2ccccn2)CC1 (stereo unspecified)
780	Cc1c(C)c2cc3c(=O)ccoc3c(C)c2oc1=O
800	CN(C)C/C=C/C(=O)Nc1ccc(C(=O)Nc2cccc(Nc3ncc(Cl)c(-c4c[nH]c5ccccc45)n3)c2)cc1
540	COc1ccc(OC)c(S(=O)(=O)NCCc2ncc(C)n2C(C)C)c1
1010	Cc1cc(C(=O)Nc2ccc3c(c2)N(S(=O)(=O)c2ccc(F)cc2)CCC3)c(C)o1
846	COc1ccc(-c2noc(Cn3cnc4c(oc5ccccc54)c3=O)n2)cc1OC
556	Cc1ccc(CN2CCC3(CC2)CC(C)(O)CCO3)nc1 (stereo unspecified)
758	CCn1cnc2ccc(-c3noc(-c4ccccc4)n3)cc21
753	CC(=O)OCCn1c([N+](=O)[O-])cnc1/C=[N+](\[O-])C1CCCCC1
700	COc1cccc(N2CCN(C(=O)c3cc4c(=O)n(C)ccc4n3C)CC2)c1
1030	COc1ccc(CNC(=O)c2sc(-c3cn(C(C)C)c4ncccc34)nc2C)cc1
904	Cc1ccc(-n2c(=O)n(C)c(=O)c3cc(C(=O)Nc4ccc(F)cc4)cnc32)cc1
818	O=C(Cc1noc2ccccc12)NCc1cc(-c2ccc(F)cc2F)on1
661	CCOc1ccc(NC(=O)Cn2cnc3cc4c(cc32)OCCO4)cc1
1040	Cc1ccc(-c2cc(C(=O)NCCc3sccc3C)c(C)[nH]2)cc1C
704	Cc1nc(-c2cnccn2)n(CC(=O)Nc2ccccc2)c(=O)c1C
826	Cc1cccc(Cn2nc3ccc(S(=O)(=O)N4CCOCC4)cn3c2=O)c1
655	O=C(Cn1nc2c(cc1=O)CCCCC2)Nc1nc(-c2ccccn2)cs1
1080	O=c1c2sccc2n(Cc2nc(-c3cccc(Br)c3)no2)c(=O)n1-c1ccc(F)cc1
1010	O=C(CCc1nc(-c2ccc(N3CCCC3)cc2)no1)Nc1ccc2c(c1)OCCO2
782	CCc1ccccc1NC(=O)N1CCC(c2nc(C(=O)N3CCCC3)c(C)o2)CC1
1040	CCOc1ccc(-c2noc(Cn3ncn4nc(-c5ccc(OC)cc5)cc4c3=O)n2)cc1OC

SMILES	RP-LC retention time [s]
O=C(CCc1nc(C2=CCN(Cc3ccc(Cl)cc3)CC2)no1)NC1CC1	890
Cc1ncc2c(n1)C[C@@H]1CC[C@H]2N1C(=O)c1sccc1C	654
CCCN1CCc2cccc3c2[C@H]1Cc1ccc(O)c(O)c1-3	652
